Laboratory results as given in patent US20260049084A1, “ENPP1 MODULATORS AND PRODUCTS AND USES THEREOF” (Gossamer Bio Services, Inc., priority 2022, published 2026).

Experiments:
[1] = target: Recombinant human ENPP1 protein (Homo sapiens (Human), UniProt P22413); assay: ENPP1 cGAMP Biochemical Assay; conditions: 0.5 nM ENPP1, 1000 nM 2′3′-cGAMP substrate, TR-FRET
How it was run: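 Recombinant human ENPP1 (final 0.5 nM) preincubated with compound 30 min at room temperature in 50 mM Tris pH 7.5, 1 mM TCEP, 2 mM MgCl2, 0.005% Tween20; 2′3′-cGAMP (1000 nM final) added, 60 min at 25 °C. AMP/GMP product detected by TR-FRET antibody/tracer competition (2 nM), 120 min.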

[2] = target: Recombinant human ENPP3 protein (Homo sapiens (Human), UniProt O14638); assay: ENPP3 cGAMP Biochemical Assay; conditions: 70.5 nM ENPP3, 120 μM 2′3′-cGAMP substrate, TR-FRET
How it was run: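 Compound was preincubated 30 min at room temperature with recombinant human ENPP3 (final 70.5 nM) in Tris pH 7.5 with Mg, Ca, Zn and TCEP. 2′3′-cGAMP (120 μM final) was then hydrolysed for 60 min at 25 °C. AMP/GMP product was detected by TR-FRET tracer-displacement immunoassay after 120 min.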

[3] = target: carbonic anhydrase I enzyme (Homo sapiens (Human), UniProt P00915); assay: Carbonic Anhydrase 1 Enzymatic Assay; format: biochemical; conditions: enzyme from human erythrocyte, 500 μM 4-nitrophenyl acetate, absorbance 400 nm; read-out: CA I IC50
Method: Carbonic Anhydrase 1 Enzymatic Assay
(§1) Test compound and/or vehicle was preincubated with carbonic anhydrase I enzyme (15 μg/ml) isolated from human erythrocyte in reaction buffer (50 mM MOPS solution pH 7.5) for 15 minutes at 25° C. The reaction was initiated by addition of 500 μM 4-nitrophenyl acetate and incubated for 30 minutes. The plate was read on a spectrophotometer (Absorbance: 400 nm)

[4] = target: carbonic anhydrase II enzyme (Homo sapiens (Human), UniProt P00918); assay: Carbonic Anhydrase 2 Enzymatic Assay; format: biochemical; conditions: enzyme from human erythrocyte, 500 μM 4-nitrophenyl acetate, absorbance 400 nm; read-out: CA II IC50
Method: Carbonic Anhydrase 2 Enzymatic Assay
as §1, with “II” for “I”

carbonic anhydrase I enzyme, sequence (P00915 whole entry): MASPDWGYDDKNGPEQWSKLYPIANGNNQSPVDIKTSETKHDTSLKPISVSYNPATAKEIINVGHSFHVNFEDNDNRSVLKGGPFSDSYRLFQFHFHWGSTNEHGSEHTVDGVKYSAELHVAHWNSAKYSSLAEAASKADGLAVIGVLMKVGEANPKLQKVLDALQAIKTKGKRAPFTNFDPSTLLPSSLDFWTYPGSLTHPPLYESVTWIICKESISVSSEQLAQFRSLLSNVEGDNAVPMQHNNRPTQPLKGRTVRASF
Recombinant human ENPP3 protein, sequence (O14638 whole entry): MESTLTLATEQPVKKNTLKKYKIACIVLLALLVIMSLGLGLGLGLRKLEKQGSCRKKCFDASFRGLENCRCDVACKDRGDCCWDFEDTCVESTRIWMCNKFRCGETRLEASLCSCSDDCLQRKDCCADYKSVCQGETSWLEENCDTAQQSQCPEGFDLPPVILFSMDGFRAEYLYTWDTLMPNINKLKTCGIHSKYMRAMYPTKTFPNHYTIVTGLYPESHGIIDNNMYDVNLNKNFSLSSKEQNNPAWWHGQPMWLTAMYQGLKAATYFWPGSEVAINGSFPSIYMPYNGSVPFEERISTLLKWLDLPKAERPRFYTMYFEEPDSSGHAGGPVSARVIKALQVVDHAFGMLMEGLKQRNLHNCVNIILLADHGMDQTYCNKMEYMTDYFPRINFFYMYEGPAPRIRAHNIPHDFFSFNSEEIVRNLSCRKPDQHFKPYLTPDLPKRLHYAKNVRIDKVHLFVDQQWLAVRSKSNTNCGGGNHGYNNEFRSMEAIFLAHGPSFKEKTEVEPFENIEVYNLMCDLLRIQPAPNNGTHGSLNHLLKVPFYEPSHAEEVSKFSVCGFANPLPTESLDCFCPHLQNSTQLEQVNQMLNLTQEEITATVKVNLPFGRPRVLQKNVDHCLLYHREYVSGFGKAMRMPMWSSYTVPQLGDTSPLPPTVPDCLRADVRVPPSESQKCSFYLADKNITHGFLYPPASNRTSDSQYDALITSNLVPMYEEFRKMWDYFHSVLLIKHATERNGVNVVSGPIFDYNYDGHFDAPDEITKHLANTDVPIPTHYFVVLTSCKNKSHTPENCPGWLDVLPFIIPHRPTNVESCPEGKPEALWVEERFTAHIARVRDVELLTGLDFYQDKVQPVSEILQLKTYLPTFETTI
Recombinant human ENPP1 protein, sequence (P22413 whole entry): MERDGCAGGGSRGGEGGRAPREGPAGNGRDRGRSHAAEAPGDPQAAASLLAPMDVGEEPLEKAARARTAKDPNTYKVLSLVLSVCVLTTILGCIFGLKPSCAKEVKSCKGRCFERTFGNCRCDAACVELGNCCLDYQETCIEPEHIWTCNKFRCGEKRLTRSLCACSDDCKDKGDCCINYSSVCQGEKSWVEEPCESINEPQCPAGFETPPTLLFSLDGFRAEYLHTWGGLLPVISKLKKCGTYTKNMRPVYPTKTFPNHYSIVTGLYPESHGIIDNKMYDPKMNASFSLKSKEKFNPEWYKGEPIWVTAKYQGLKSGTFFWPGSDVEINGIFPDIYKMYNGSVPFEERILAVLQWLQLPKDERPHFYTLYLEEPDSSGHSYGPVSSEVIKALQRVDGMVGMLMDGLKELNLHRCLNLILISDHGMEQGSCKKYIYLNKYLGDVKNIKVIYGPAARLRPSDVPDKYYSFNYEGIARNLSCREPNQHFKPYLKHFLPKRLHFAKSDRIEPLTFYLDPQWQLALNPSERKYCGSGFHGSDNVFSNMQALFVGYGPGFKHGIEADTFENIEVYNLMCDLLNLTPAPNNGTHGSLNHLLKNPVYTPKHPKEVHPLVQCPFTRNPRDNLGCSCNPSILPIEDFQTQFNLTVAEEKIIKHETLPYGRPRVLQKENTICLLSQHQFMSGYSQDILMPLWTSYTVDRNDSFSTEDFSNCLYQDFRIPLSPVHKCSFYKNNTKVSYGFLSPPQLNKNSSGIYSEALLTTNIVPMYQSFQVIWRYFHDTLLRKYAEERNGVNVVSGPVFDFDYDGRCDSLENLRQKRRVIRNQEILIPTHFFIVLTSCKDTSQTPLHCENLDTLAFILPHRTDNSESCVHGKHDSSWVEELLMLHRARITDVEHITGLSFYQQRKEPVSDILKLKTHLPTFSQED

Row | IC50 [1] | IC50 [2] | IC50 [3] | IC50 [4] | Structure (SMILES)
1 | 10 to 100 nM | 100 to 1000 nM | 100 to 1000 nM | ≥ 1000 nM | CCn1ncc2c(NCC3CCN(S(=N)(N)=O)CC3)ccnc21 (stereo not shown) [Compound 1A, 4-(((1-ethyl-1H-pyrazolo[3,4-b]pyridin-4-yl)amino)methyl)piperidine-1-sulfonimidamide]
2 | 10 to 100 nM | 10 to 100 nM | 100 to 1000 nM | 100 to 1000 nM | N=S(N)(=O)c1ccc(CNc2ccnc3[nH]nc(-c4ccccc4)c23)cc1 (stereo not shown) [Compound 1B, 4-(((3-phenyl-1H-pyrazolo[3,4-b]pyridin-4-yl)amino)methyl)benzenesulfonimidamide]
3 | 10 to 100 nM | ≥ 1000 nM | 100 to 1000 nM | ≥ 1000 nM | CCn1ncc2c(NCc3ccc(S(=N)(N)=O)cc3)ccnc21 (stereo not shown) [Compound 2A, 4-(((1-ethyl-1H-pyrazolo[3,4-b]pyridin-4-yl)amino)methyl)benzene sulfonimidamide]
4 | 10 to 100 nM | 100 to 1000 nM | 10 to 100 nM | ≥ 1000 nM | CCn1nc(Br)c2c(NCc3ccc(S(=N)(N)=O)cc3)ccnc21 (stereo not shown) [Compound 2B, 4-(((3-bromo-1-ethyl-1H-pyrazolo[3,4-b]pyridin-4-yl)amino)methyl)benzenesulfonimidamide]
5 | 100 to 1000 nM | ≥ 1000 nM | ≥ 1000 nM | ≥ 1000 nM | CCn1ncc2c(NCc3ccc(S(N)(=O)=NC)cc3)ccnc21 (stereo not shown) [Compound 3A, 4-(((1-ethyl-1H-pyrazolo[3,4-b]pyridin-4-yl)amino)methyl)-N′-methylbenzenesulfonimidamide]
6 | – | ≥ 1000 nM | ≥ 1000 nM | ≥ 1000 nM | CCn1ncc2c(NCC3CCN(S(C)(=N)=O)CC3)ccnc21 (stereo not shown) [Compound 4A, 1-ethyl-N-((1-(S-methylsulfonimidoyl)piperidin-4-yl)methyl)-1H-pyrazolo[3,4-b]pyridin-4-amine]
7 | – | 100 to 1000 nM | ≥ 1000 nM | ≥ 1000 nM | CCn1ncc2c(NCc3ccc(S(N)(=O)=NC#N)cc3)ccnc21 (stereo not shown) [Compound 12G, N′-cyano-4-(((1-ethyl-1H-pyrazolo[3,4-b]pyridin-4-yl)amino)methyl)benzenesulfonimidamide]
8 | < 10 nM | < 10 nM | 100 to 1000 nM | ≥ 1000 nM | N#CCn1nc(Cl)c2c(NCc3ccc(S(N)(=O)=NC#N)cc3)ccnc21 (stereo not shown) [Compound 12H, 4-(((3-chloro-1-(cyanomethyl)-1H-pyrazolo[3,4-b]pyridin-4-yl)amino)methyl)-N′-cyanobenzenesulfonimidamide]
9 | < 10 nM | < 10 nM | 100 to 1000 nM | ≥ 1000 nM | C#CCn1nc(Cl)c2c(NCc3ccc(S(N)(=O)=NC#N)cc3)ccnc21 (stereo not shown) [Compound 12I, 4-(((3-chloro-1-(prop-2-yn-1-yl)-1H-pyrazolo[3,4-b]pyridin-4-yl)amino)methyl)-N′-cyanobenzenesulfonimidamide]
10 | < 10 nM | < 10 nM | 100 to 1000 nM | ≥ 1000 nM | C#CCn1nc(Cl)c2c(NCc3ccc([S@](=N)(=O)NC#N)cc3)ccnc21 [Compound 12J, (R)-4-(((3-chloro-1-(prop-2-yn-1-yl)-1H-pyrazolo[3,4-b]pyridin-4-yl)amino)methyl)-N-cyanobenzenesulfonimidamide]
11 | < 10 nM | < 10 nM | 100 to 1000 nM | 100 to 1000 nM | C#CCn1nc(Cl)c2c(NCc3ccc([S@@](=N)(=O)NC#N)cc3)ccnc21 [Compound 12K, (S)-4-(((3-chloro-1-(prop-2-yn-1-yl)-1H-pyrazolo[3,4-b]pyridin-4-yl)amino)methyl)-N-cyanobenzenesulfonimidamide]
12 | 10 to 100 nM | ≥ 1000 nM | ≥ 1000 nM | ≥ 1000 nM | CCn1nc(Cl)c2c(NCC3CCN(S(=N)(=O)CCC#N)CC3)ccnc21 (stereo not shown) [Compound 14E, 3-(4-(((3-chloro-1-ethyl-1H-pyrazolo[3,4-b]pyridin-4-yl)amino)methyl)piperidine-1-sulfonimidoyl)propanenitrile]
13 | < 10 nM | 10 to 100 nM | – | – | CN=S(N)(=O)N1CCC(CNc2ccnc3c2c(Cl)nn3CC#N)CC1 (stereo not shown) [Compound 15A, 4-(((3-chloro-1-(cyanomethyl)-1H-pyrazolo[3,4-b]pyridin-4-yl)amino)methyl)-N′-methylpiperidine-1-sulfonimidamide]
14 | < 10 nM | < 10 nM | – | – | N#CCn1nc(Cl)c2c(NCC3CCN(S(N)(=O)=NC#N)CC3)ccnc21 (stereo not shown) [Compound 15B, 4-(((3-chloro-1-(cyanomethyl)-1H-pyrazolo[3,4-b]pyridin-4-yl)amino)methyl)-N′-cyanopiperidine-1-sulfonimidamide]
15 | < 10 nM | 10 to 100 nM | ≥ 1000 nM | ≥ 1000 nM | C#CCn1nc(Cl)c2c(NCC3CCN(S(N)(=O)=NC)CC3)ccnc21 (stereo not shown) [Compound 15D, 4-(((3-chloro-1-(prop-2-yn-1-yl)-1H-pyrazolo[3,4-b]pyridine-4-yl)amino)methyl)-N′-methylpiperidine-1-sulfonimidamide]
16 | < 10 nM | < 10 nM | 100 to 1000 nM | ≥ 1000 nM | N#CCn1nc(Cl)c2c(NCC3CCN([S@@](N)(=O)=NC#N)CC3)ccnc21 [Compound 15E, (S)-4-(((3-chloro-1-(cyanomethyl)-1H-pyrazolo[3,4-b]pyridine-4-yl)amino)methyl)-N′-cyanopiperidine-1-sulfonimidamide]
17 | < 10 nM | < 10 nM | 100 to 1000 nM | 100 to 1000 nM | N#CCn1nc(Cl)c2c(NCC3CCN([S@](N)(=O)=NC#N)CC3)ccnc21 [Compound 15F, (R)-4-(((3-chloro-1-(cyanomethyl)-1H-pyrazolo[3,4-b]pyridin-4-yl)amino)methyl)-N′-cyanopiperidine-1-sulfonimidamide]
18 | < 10 nM | 100 to 1000 nM | ≥ 1000 nM | ≥ 1000 nM | CN=[S@@](N)(=O)N1CCC(CNc2ccnc3c2c(Cl)nn3CC#N)CC1 [Compound 15H, (R)-4-(((3-chloro-1-(cyanomethyl)-1H-pyrazolo[3,4-b]pyridin-4-yl)amino)methyl)-N′-methylpiperidine-1-sulfonimidamide]
19 | < 10 nM | 100 to 1000 nM | – | – | C#CCn1nc(Cl)c2c(NCC3CCN(S(=N)(N)=O)CC3)ccnc21 (stereo not shown) [Compound 15I, 4-(((3-chloro-1-(prop-2-yn-1-yl)-1H-pyrazolo[3,4-b]pyridin-4-yl)amino)methyl)piperidine-1-sulfonimidamide]
20 | ≥ 1000 nM | ≥ 1000 nM | – | – | CCn1ncc2c(Oc3ccc(S(N)(=O)=NCC4CC4)cc3)ccnc21 (stereo not shown) [Compound 16A, N′-(cyclopropylmethyl)-4-((1-ethyl-1H-pyrazolo [3,4-b]pyridin-4-yl)oxy)benzenesulfonimidamide]
